Patent US10294207B2, “Pyrazole derivatives as TNIK, IKKϵ and TBK1 inhibitor and pharmaceutical composition comprising same” (GREEN CROSS CORPORATION, priority 2015, dated 2019)

Assays:
IKKε = target: T1, IKKε (Homo sapiens, UniProt Q14164); experiment: IKKε inhibition, ADP-Glo Kinase Assay; format: biochemical; details: luminometer
T1 construct: purchased Invitrogen PR8031B
T1 sequence (Q14164 1-716): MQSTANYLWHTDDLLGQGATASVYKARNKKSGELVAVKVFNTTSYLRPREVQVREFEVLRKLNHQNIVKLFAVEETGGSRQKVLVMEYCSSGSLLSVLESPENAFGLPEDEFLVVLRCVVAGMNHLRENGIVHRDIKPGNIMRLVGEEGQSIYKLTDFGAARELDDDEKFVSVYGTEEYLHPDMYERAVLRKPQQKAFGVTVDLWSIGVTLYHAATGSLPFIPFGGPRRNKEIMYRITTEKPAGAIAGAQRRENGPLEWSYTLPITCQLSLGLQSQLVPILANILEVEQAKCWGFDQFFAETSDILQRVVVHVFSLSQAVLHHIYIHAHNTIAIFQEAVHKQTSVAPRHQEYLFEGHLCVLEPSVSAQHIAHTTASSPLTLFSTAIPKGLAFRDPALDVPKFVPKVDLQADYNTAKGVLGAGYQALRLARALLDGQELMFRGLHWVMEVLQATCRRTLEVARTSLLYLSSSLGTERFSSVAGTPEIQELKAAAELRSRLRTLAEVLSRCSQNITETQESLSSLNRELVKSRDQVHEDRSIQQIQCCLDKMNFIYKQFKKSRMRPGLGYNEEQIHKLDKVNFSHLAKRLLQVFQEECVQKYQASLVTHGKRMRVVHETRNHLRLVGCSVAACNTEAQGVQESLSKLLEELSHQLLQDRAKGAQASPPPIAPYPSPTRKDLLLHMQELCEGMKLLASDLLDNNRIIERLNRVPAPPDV
Procedure: Inhibition activities on TNIK, IKKε and TBK1 were evaluated using the compounds of Examples 1 to 254.
The inhibition activities on TNIK, IKKε and TBK1 were measured by a luminometer, TNIK/IKKε/TBK1 Kinase Enzyme System (Promega, Ca# V4158; Invitrogen, PR8031B, Promega, Ca# V3991) and ADP-Glo Kinase Assay using ADP-Glo™ Kinase Analysis Kit (Promega, Ca# V9101) and a kinase reaction buffer [40 mM Tris(pH 7.5), 20 mM MgCl2, 0.1 mg/mL BSA] in accordance with the manufacturer's protocol.

TBK1 = target: T2, TBK1 (Homo sapiens, UniProt Q9UHD2); experiment: TBK1 inhibition, ADP-Glo Kinase Assay; format: biochemical; details: luminometer
T2 construct: purchased Promega V3991
T2 sequence (Q9UHD2 1-729): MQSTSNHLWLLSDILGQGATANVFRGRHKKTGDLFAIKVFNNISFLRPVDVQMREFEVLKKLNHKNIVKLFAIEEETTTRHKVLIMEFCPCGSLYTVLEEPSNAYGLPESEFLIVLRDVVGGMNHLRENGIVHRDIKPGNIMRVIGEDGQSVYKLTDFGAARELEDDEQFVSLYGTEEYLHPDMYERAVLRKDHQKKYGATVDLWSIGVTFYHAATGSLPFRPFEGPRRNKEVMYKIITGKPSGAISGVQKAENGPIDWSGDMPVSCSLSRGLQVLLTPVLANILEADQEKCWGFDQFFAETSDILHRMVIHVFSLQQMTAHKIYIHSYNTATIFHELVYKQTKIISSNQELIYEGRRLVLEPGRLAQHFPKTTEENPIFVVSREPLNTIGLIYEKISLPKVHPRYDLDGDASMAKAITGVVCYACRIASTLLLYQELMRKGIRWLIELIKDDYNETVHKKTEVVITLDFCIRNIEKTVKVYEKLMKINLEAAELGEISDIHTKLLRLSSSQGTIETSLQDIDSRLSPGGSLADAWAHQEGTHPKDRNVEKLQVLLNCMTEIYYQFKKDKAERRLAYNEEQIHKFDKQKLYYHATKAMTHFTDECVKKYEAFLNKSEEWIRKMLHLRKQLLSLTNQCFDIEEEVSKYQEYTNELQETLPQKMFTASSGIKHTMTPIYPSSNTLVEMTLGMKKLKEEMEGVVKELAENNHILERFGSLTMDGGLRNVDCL
Outline: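 Each recombinant kinase enzyme system was run per the manufacturer's protocol in 40 mM Tris pH 7.5, 20 mM MgCl2 and 0.1 mg/mL BSA. Kinase activity was detected as ADP formation by ADP-Glo luminescence.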

Compound | IC50 (IKKε) [µM] | IC50 (TBK1) [µM]
C[C@H]1CN(c2ccc(C(=O)Nc3n[nH]c4ccc(C(=O)NC5(c6ccccc6)CC5)cc34)cc2)CCN1 [Example 76, (S)-3-(4-(3-Methylpiperazin-1-yl)benzamido)-N-(1-phenylcyclopropyl)-1H-indazole-5-carboxamide] | 0.016 | 0.0046
C[C@@H]1CN(c2ccc(C(=O)Nc3n[nH]c4ccc(C(=O)NC5(c6ccccc6)CC5)cc34)cc2)CCN1 [Example 77, (R)-3-(4-(3-Methylpiperazin-1-yl)benzamido)-N-(1-phenylcyclopropyl)-1H-indazole-5-carboxamide] | 0.018 | 0.0048
CC(NC(=O)c1ccc2[nH]nc(NC(=O)c3ccc(N4CCN(C)CC4)cc3)c2c1)c1nccs1 (stereo not shown) [Example 82, 3-(4-(4-Methylpiperazin-1-yl)benzamido)-N-(1-(thiazol-2-yl)ethyl)-1H-indazole-5-carboxamide] | 0.074 | 0.014
CCC(NC(=O)c1ccc2[nH]nc(NC(=O)c3ccc(N4CCN(C)CC4)cc3)c2c1)c1nccs1 (stereo not shown) [Example 84, 3-(4-(4-Methylpiperazin-1-yl)benzamido)-N-(1-(thiazol-2-yl)propyl)-1H-indazole-5-carboxamide] | 0.069 | 0.016
CN1CCN(c2ccc(C(=O)Nc3n[nH]c4ccc(C(=O)NCC5CCCCC5)cc34)cc2)CC1 [Example 87, N-(Cyclohexylmethyl)-3-(4-(4-methylpiperazin-1-yl)benzamido)-1H-indazole-5-carboxamide] | 0.072 | 0.018
CC1CN(c2ccc(C(=O)Nc3n[nH]c4ccc(C(=O)NCc5cccs5)cc34)cc2)CC(C)N1 (stereo not shown) [Example 89, 3-(4-(3,5-Dimethylpiperazin-1-yl)benzamido)-N-(thiophen-2-ylmethyl)-1H-indazole-5-carboxamide 2,2,2-trifluoroacetate] | 0.079 | 0.0056
O=C(NCC1CCCC1)c1ccc2[nH]nc(NC(=O)c3ccc(N4CCOCC4)cc3)c2c1 [Example 91, N-(Cyclopentylmethyl)-3-(4-morpholinobenzamido)-1H-indazole-5-carboxamide 2,2,2-trifluoroacetate] | 0.093 | 0.0053
CC(CCO)NC(=O)c1ccc2[nH]nc(NC(=O)c3ccc(N4CCN(C)CC4)cc3)c2c1 (stereo not shown) [Example 93, N-(4-Hydroxybutan-2-yl)-3-(4-(4-methylpiperazin-1-yl)benzamido)-1H-indazole-5-carboxamide] | 1.04 | 0.19
CN1CCN(c2ccc(C(=O)Nc3n[nH]c4ccc(C(=O)NCc5c[nH]nn5)cc34)cc2)CC1 [Example 94, N-((1H-1,2,3-Triazol-4-yl)methyl)-3-(4-(4-methylpiperazin-1-yl)benzamido)-1H-indazole-5-carboxamide] | 1.59 | 0.24
CCC(NC(=O)c1ccc2[nH]nc(NC(=O)c3ccc(N4CC(C)OC(C)C4)cc3)c2c1)c1cccs1 (stereo not shown) [Example 96, 3-(4-(2,6-Dimethylmorpholino)benzamido)-N-(1-(thiophen-2-yl)propyl)-1H-indazole-5-carboxamide 2,2,2-trifluoroacetate] | 0.047 | 0.0051

More lines, in order of falling IC50 (IKKε), values ahead:

IC50 (IKKε) [µM] | IC50 (TBK1) [µM] | Compound
1.63 | 0.16 | CN1CCN(c2ccc(C(=O)Nc3n[nH]c4ccc(C(=O)NCc5ccccn5)cc34)cc2)CC1 [Example 85, 3-(4-(4-Methylpiperazin-1-yl)benzamido)-N-(pyridin-2-ylmethyl)-1H-indazole-5-carboxamide bis(2,2,2-trifluoroacetate)]
0.45 | 0.089 | O=C(NCc1ccccn1)c1ccc2[nH]nc(NC(=O)c3ccc(N4CCOCC4)cc3)c2c1 [Example 86, 3-(4-Morpholinobenzamido)-N-(pyridin-2-ylmethyl)-1H-indazole-5-carboxamide]
0.22 | 0.015 | Cc1cc(C(=O)Nc2n[nH]c3ccc(C(=O)NCc4cccs4)cc23)ccc1N1CCN(C)CC1 [Example 79, 3-(3-Methyl-4-(4-methylpiperazin-1-yl)benzamido)-N-(thiophen-2-ylmethyl)-1H-indazole-5-carboxamide]
0.21 | 0.013 | CN1CCN(c2ccc(C(=O)Nc3n[nH]c4ccc(C(=O)NCC5CCCC5)cc34)cc2)CC1 [Example 90, N-(Cyclopentylmethyl)-3-(4-(4-methylpiperazin-1-yl)benzamido)-1H-indazole-5-carboxamide 2,2,2-trifluoroacetate]
0.2 | 0.037 | Cc1cc(C(=O)Nc2n[nH]c3ccc(C(=O)NCc4cccs4)cc23)ccc1N1CCOCC1 [Example 78, 3-(3-Methyl-4-morpholinobenzamido)-N-(thiophen-2-ylmethyl)-1H-indazole-5-carboxamide]
0.11 | 0.02 | O=C(NCC1CCCCC1)c1ccc2[nH]nc(NC(=O)c3ccc(N4CCOCC4)cc3)c2c1 [Example 88, N-(Cyclohexylmethyl)-3-(4-morpholinobenzamido)-1H-indazole-5-carboxamide]
0.065 | 0.007 | CC1CN(c2ccc(C(=O)Nc3n[nH]c4ccc(C(=O)NCc5cccs5)cc34)cc2)CC(C)O1 (stereo not shown) [Example 92, 3-(4-(2,6-Dimethylmorpholino)benzamido)-N-(thiophen-2-ylmethyl)-1H-indazole-5-carboxamide 2,2,2-trifluoroacetate]
0.047 | 0.011 | CC(NC(=O)c1ccc2[nH]nc(NC(=O)c3ccc(N4CCN(C)CC4)cc3)c2c1)c1cncs1 (stereo not shown) [Example 83, 3-(4-(4-Methylpiperazin-1-yl)benzamido)-N-(1-(thiazol-5-yl)ethyl)-1H-indazole-5-carboxamide]
0.023 | 0.003 | CCC(NC(=O)c1ccc2[nH]nc(NC(=O)c3ccc(N4CCN[C@H](C)C4)cc3)c2c1)c1cccs1 (stereo partly drawn) [Example 98, 3-(4-((R)-3-Methylpiperazin-1-yl)benzamido)-N-(1-(thiophen-2-yl)propyl)-1H-indazole-5-carboxamide 2,2,2-trifluoroacetate]
0.021 | 0.0039 | CC(NC(=O)c1ccc2[nH]nc(NC(=O)c3ccc(N4CCN(C)CC4)cc3)c2c1)c1ccco1 (stereo not shown) [Example 81, N-(1-(Furan-2-yl)ethyl)-3-(4-(4-methylpiperazin-1-yl)benzamido)-1H-indazole-5-carboxamide]
0.021 | 0.0028 | CCC(NC(=O)c1ccc2[nH]nc(NC(=O)c3ccc(N4CC(C)NC(C)C4)cc3)c2c1)c1cccs1 (stereo not shown) [Example 95, 3-(4-(3,5-dimethylpiperazin-1-yl)benzamido)-N-(1-(thiophen-2-yl)propyl)-1H-indazole-5-carboxamide 2,2,2-trifluoroacetate]
0.016 | 0.0028 | CCC(NC(=O)c1ccc2[nH]nc(NC(=O)c3ccc(N4CCN[C@@H](C)C4)cc3)c2c1)c1cccs1 (stereo partly drawn) [Example 97, 3-(4-((S)-3-Methylpiperazin-1-yl)benzamido)-N-(1-(thiophen-2-yl)propyl)-1H-indazole-5-carboxamide 2,2,2-trifluoroacetate]
0.0074 | 0.0025 | CC(NC(=O)c1ccc2[nH]nc(NC(=O)c3ccc(N4CCN(C)CC4)cc3)c2c1)c1ccsc1 (stereo not shown) [Example 80, 3-(4-(4-Methylpiperazin-1-yl)benzamido)-N-(1-(thiophen-3-yl)ethyl)-1H-indazole-5-carboxamide]
